Source: ChEMBL document CHEMBL4879554, “Data for DCP probe GNE-2256” (2021)

What was measured:
[1] = target: Dual specificity mitogen-activated protein kinase kinase 1 (Homo sapiens) (UniProt Q02750); assay: MEK1 Kinase panel; conditions: Compound concentration 1.0 uM
[2] = target: Eukaryotic elongation factor 2 kinase (Homo sapiens) (UniProt O00418); assay: eEF_2K Kinase panel; conditions: Compound concentration 1.0 uM
[3] = target: Serine/threonine-protein kinase 16 (Homo sapiens) (UniProt O75716); assay: STK16 Kinase panel; conditions: Compound concentration 1.0 uM
[4] = target: Serine/threonine-protein kinase Chk1 (Homo sapiens) (UniProt O14757); assay: CHK1 Kinase panel; conditions: Compound concentration 1.0 uM
[5] = target: Cytoplasmic tyrosine-protein kinase BMX (Homo sapiens) (UniProt P51813); assay: Bmx Kinase panel; conditions: Compound concentration 1.0 uM
[6] = target: Epithelial discoidin domain-containing receptor 1 (Homo sapiens) (UniProt Q08345); assay: DDR1 Kinase panel; conditions: Compound concentration 1.0 uM
[7] = target: Alpha-2B adrenergic receptor (Homo sapiens) (UniProt P18089); conditions: Compound concentration 10.0 uM
[8] = target: Protein kinase C theta type (Homo sapiens) (UniProt Q04759); assay: PKC_theta Kinase panel; conditions: Compound concentration 1.0 uM
[9] = target: Tyrosine-protein kinase Fes/Fps (Homo sapiens) (UniProt P07332); assay: Fes Kinase panel; conditions: Compound concentration 1.0 uM
[10] = target: DNA-dependent protein kinase catalytic subunit (Homo sapiens) (UniProt P78527); assay: DNA_PK Kinase panel; conditions: Compound concentration 1.0 uM
[11] = target: Dual specificity mitogen-activated protein kinase kinase 3 (Homo sapiens) (UniProt P46734); assay: MEK3 Kinase panel; conditions: Compound concentration 1.0 uM
[12] = target: Serine/threonine-protein kinase PAK 6 (Homo sapiens) (UniProt Q9NQU5); assay: PAK6 Kinase panel; conditions: Compound concentration 1.0 uM
[13] = target: Tyrosine-protein kinase JAK1 (Homo sapiens, UniProt P23458); assay: NanoBRET assay (JAK1, SGC Frankfurt)
[14] = target: MAP kinase-activated protein kinase 5 (Homo sapiens) (UniProt Q8IW41); assay: PRAK Kinase panel; conditions: Compound concentration 1.0 uM
[15] = target: 5-hydroxytryptamine receptor 3A (Homo sapiens) (UniProt P46098); conditions: Compound concentration 10.0 uM
[16] = target: Mu-type opioid receptor (Homo sapiens) (UniProt P35372); conditions: Compound concentration 10.0 uM
[17] = target: Myotonin-protein kinase (Homo sapiens) (UniProt Q09013); assay: DMPK Kinase panel; conditions: Compound concentration 1.0 uM
[18] = target: Muscarinic acetylcholine receptor M5 (Homo sapiens) (UniProt P08912); conditions: Compound concentration 10.0 uM
[19] = target: GABA-A receptor; anion channel (Rattus norvegicus) (UniProt O09028+P15431+P18506+P18508+P19969+P20236+P23574+P23576+P28471+P28473+P30191+P62813+P63079+P63138+Q91ZM7+Q9ES14); conditions: Compound concentration 10.0 uM
[20] = target: Tyrosine-protein kinase Tec (Homo sapiens) (UniProt P42680); assay: TEC Kinase panel; conditions: Compound concentration 1.0 uM
[21] = target: Sodium-dependent noradrenaline transporter (Homo sapiens) (UniProt P23975); conditions: Compound concentration 10.0 uM
[22] = target: Casein kinase I isoform delta (Homo sapiens) (UniProt P48730); assay: CK1_delta Kinase panel; conditions: Compound concentration 1.0 uM
[23] = target: Serine/threonine-protein kinase TBK1 (Homo sapiens) (UniProt Q9UHD2); assay: TBK1 Kinase panel; conditions: Compound concentration 1.0 uM
Rattus norvegicus = organism: Rattus norvegicus; conditions: Compound concentration 10.0 uM
[24] = target: Serine/threonine-protein kinase 33 (Homo sapiens) (UniProt Q9BYT3); assay: STK33 Kinase panel; conditions: Compound concentration 1.0 uM
[25] = target: Tyrosine-protein kinase FRK (Homo sapiens) (UniProt P42685); assay: Frk Kinase panel; conditions: Compound concentration 1.0 uM
[26] = target: Serine/threonine-protein kinase D1 (Homo sapiens) (UniProt Q15139); assay: PKD1 Kinase panel; conditions: Compound concentration 1.0 uM
[27] = target: MAP kinase-activated protein kinase 2 (Homo sapiens) (UniProt P49137); assay: MAPKAPK2 Kinase panel; conditions: Compound concentration 1.0 uM
[28] = target: Serine/threonine-protein kinase Sgk3 (Homo sapiens) (UniProt Q96BR1); assay: SGK3 Kinase panel; conditions: Compound concentration 1.0 uM
[29] = target: Bone morphogenetic protein receptor type-1A (Homo sapiens) (UniProt P36894); assay: BMPR1A Kinase panel; conditions: Compound concentration 1.0 uM
[30] = target: Serine/threonine-protein kinase N1 (Homo sapiens) (UniProt Q16512); assay: PRK1 Kinase panel; conditions: Compound concentration 1.0 uM
[31] = target: Serine/threonine-protein kinase WNK2 (Homo sapiens) (UniProt Q9Y3S1); assay: WNK2 Kinase panel; conditions: Compound concentration 1.0 uM
[32] = target: Tyrosine-protein kinase BTK (Homo sapiens) (UniProt Q06187); assay: BTK Kinase panel; conditions: Compound concentration 1.0 uM
[33] = target: Tyrosine-protein kinase Lck (Homo sapiens) (UniProt P06239); assay: Lck Kinase panel; conditions: Compound concentration 1.0 uM
[34] = target: Casein kinase I isoform epsilon (Homo sapiens) (UniProt P49674); assay: CK1_epsilon1 Kinase panel; conditions: Compound concentration 1.0 uM
[35] = target: Sigma intracellular receptor 2 (Homo sapiens) (UniProt Q5BJF2); conditions: Compound concentration 10.0 uM
[36] = target: Receptor tyrosine-protein kinase erbB-2 (Homo sapiens) (UniProt P04626); assay: ErbB2 Kinase panel; conditions: Compound concentration 1.0 uM
[37] = target: Serine/threonine-protein kinase 24 (Homo sapiens) (UniProt Q9Y6E0); assay: MST3 Kinase panel; conditions: Compound concentration 1.0 uM
[38] = target: Fibroblast growth factor receptor 4 (Homo sapiens) (UniProt P22455); assay: FGFR4 Kinase panel; conditions: Compound concentration 1.0 uM
[39] = target: Ribosomal protein S6 kinase beta-1 (Homo sapiens) (UniProt P23443); assay: p70S6K Kinase panel; conditions: Compound concentration 1.0 uM
[40] = target: Beta-adrenergic receptor kinase 1 (Homo sapiens) (UniProt P25098); assay: GRK2 Kinase panel; conditions: Compound concentration 1.0 uM
[41] = target: Alpha-1D adrenergic receptor (Homo sapiens) (UniProt P25100); conditions: Compound concentration 10.0 uM
[42] = target: MAP kinase-interacting serine/threonine-protein kinase 1 (Homo sapiens) (UniProt Q9BUB5); assay: MKNK1 Kinase panel; conditions: Compound concentration 1.0 uM

Chain of Serine/threonine-protein kinase 33 (Homo sapiens) (Q9BYT3 whole entry, looked up): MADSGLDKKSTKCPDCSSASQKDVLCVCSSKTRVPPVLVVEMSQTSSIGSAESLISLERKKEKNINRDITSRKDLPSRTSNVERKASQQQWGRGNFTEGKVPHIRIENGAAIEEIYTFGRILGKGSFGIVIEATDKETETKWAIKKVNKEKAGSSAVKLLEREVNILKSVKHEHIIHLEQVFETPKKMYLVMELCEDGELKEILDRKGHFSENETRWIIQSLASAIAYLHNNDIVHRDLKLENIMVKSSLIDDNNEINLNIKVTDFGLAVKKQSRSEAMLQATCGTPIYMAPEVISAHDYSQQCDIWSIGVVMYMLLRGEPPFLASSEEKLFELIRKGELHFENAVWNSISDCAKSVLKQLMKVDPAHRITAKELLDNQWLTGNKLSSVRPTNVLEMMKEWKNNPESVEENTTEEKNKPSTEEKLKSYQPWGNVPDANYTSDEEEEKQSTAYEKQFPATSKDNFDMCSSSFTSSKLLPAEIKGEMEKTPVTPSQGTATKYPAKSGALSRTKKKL
Chain of Serine/threonine-protein kinase Sgk3 (Homo sapiens) (Q96BR1 whole entry): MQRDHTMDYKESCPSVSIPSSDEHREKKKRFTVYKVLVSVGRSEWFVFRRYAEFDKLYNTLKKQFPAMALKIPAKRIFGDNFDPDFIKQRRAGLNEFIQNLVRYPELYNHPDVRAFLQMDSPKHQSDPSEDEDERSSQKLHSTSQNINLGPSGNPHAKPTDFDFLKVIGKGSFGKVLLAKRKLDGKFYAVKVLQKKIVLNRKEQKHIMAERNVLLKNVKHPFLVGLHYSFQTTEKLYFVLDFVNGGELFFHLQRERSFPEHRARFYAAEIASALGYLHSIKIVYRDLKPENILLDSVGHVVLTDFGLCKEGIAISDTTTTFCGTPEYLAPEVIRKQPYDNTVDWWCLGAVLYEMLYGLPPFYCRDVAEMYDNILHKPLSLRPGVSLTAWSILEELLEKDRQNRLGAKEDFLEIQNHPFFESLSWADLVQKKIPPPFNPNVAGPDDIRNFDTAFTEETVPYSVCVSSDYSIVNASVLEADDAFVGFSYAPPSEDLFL
Chain of Ribosomal protein S6 kinase beta-1 (Homo sapiens) (P23443 whole entry, looked up): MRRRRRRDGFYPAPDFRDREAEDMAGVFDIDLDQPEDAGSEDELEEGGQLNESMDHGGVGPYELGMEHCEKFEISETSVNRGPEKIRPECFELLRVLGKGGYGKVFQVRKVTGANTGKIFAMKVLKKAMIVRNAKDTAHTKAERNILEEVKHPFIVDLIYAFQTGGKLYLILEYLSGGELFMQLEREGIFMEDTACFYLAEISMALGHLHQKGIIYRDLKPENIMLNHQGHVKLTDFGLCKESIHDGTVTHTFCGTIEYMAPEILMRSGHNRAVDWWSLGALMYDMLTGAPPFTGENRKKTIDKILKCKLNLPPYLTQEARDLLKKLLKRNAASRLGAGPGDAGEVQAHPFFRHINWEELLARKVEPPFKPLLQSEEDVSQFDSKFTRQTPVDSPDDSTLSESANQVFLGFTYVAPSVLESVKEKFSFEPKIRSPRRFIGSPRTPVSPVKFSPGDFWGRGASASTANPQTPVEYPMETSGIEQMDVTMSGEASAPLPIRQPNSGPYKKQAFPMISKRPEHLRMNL
Chain of Tyrosine-protein kinase Lck (Homo sapiens) (P06239 2-509 limits assumed): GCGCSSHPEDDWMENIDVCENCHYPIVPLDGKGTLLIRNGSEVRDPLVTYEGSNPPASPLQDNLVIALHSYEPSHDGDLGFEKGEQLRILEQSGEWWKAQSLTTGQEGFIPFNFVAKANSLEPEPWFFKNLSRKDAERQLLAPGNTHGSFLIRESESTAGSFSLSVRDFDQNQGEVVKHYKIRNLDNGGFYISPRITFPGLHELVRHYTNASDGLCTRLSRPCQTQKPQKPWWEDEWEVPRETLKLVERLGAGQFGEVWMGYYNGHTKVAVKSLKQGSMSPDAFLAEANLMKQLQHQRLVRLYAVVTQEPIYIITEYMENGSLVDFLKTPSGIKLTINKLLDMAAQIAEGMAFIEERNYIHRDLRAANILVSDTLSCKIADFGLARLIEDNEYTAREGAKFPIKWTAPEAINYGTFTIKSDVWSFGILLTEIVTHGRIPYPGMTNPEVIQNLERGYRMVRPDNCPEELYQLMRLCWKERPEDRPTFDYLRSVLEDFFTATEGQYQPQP
Chain of Tyrosine-protein kinase Tec (Homo sapiens) (P42680 whole entry): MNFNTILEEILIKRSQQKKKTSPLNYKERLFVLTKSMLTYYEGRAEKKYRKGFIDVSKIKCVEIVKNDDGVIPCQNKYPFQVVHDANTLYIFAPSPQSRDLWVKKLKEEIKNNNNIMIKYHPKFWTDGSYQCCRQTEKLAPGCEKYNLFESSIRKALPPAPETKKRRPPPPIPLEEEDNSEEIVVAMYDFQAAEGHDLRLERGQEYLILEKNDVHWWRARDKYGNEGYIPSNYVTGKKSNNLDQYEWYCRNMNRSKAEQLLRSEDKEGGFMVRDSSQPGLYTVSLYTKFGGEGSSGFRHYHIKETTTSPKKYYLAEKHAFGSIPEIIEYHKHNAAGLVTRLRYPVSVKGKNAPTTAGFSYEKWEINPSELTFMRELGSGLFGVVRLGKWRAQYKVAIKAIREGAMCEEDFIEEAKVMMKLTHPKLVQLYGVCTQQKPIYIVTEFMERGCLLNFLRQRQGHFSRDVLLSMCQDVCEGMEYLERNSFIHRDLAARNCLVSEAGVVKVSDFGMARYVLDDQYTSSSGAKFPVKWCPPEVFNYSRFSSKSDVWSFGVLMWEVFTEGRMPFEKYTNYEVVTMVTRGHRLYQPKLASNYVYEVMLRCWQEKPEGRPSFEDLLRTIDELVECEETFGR
Chain of Serine/threonine-protein kinase 16 (Homo sapiens) (O75716 whole entry): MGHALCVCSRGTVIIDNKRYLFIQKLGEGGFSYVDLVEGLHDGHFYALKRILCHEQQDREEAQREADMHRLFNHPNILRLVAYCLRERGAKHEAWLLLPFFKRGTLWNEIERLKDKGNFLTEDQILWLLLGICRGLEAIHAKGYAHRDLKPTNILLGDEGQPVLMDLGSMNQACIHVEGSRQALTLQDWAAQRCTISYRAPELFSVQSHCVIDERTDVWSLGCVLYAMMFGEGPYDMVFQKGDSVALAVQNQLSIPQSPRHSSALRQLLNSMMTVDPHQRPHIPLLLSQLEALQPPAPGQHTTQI
Chain of Dual specificity mitogen-activated protein kinase kinase 3 (Homo sapiens) (P46734 whole entry): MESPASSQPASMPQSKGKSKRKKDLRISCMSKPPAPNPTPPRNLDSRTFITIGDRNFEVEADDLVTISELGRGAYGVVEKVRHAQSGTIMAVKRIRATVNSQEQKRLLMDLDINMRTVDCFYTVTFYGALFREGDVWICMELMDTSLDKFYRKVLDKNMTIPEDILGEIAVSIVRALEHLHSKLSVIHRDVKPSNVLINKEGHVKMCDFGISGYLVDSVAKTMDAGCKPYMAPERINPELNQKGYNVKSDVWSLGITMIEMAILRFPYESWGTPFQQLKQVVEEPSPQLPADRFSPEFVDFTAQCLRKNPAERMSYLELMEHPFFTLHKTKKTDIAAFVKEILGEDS
Chain of Serine/threonine-protein kinase D1 (Homo sapiens) (Q15139 whole entry): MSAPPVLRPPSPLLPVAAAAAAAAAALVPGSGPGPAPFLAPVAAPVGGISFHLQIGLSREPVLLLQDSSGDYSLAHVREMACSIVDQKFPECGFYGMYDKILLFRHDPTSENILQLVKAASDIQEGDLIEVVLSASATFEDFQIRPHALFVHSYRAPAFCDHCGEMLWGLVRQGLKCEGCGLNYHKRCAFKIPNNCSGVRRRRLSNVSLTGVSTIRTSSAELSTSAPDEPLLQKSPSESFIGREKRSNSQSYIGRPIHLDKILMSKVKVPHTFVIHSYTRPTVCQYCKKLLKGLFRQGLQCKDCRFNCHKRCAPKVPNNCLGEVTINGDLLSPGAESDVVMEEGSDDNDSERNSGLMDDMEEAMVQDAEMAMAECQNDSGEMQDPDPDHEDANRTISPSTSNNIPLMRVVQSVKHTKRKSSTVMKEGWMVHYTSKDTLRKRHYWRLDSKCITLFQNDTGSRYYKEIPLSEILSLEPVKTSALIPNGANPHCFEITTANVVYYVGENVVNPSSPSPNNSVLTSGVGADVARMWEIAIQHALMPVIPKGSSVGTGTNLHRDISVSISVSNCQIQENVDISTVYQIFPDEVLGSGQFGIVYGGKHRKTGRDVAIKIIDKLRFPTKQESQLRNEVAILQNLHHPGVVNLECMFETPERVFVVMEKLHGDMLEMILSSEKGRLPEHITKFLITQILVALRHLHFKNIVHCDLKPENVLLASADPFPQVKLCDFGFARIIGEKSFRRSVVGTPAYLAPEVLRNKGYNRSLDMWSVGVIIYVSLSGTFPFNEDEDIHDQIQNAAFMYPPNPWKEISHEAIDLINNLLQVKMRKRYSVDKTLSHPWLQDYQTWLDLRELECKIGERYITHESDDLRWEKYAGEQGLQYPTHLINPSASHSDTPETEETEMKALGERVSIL
Chain of Serine/threonine-protein kinase PAK 6 (Homo sapiens) (Q9NQU5 whole entry, looked up): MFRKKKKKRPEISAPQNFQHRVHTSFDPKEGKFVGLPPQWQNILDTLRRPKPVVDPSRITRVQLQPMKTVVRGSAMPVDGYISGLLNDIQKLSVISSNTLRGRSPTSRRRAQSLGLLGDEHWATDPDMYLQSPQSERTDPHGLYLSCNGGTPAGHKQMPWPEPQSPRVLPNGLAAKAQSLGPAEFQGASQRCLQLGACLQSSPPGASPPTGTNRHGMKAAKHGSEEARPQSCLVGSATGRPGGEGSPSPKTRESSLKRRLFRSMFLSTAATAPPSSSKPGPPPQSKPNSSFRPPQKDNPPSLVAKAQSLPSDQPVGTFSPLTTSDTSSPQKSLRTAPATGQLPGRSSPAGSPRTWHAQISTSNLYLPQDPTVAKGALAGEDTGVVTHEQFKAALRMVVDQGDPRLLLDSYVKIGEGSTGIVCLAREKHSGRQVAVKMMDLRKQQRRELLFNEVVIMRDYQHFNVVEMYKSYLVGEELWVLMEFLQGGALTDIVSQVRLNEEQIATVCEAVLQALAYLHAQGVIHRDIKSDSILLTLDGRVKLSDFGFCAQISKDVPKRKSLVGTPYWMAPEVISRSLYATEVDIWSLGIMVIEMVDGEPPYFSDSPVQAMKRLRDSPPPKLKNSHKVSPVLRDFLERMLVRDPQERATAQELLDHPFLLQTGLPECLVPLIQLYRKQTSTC

Structure (SMILES): CC(C)(O)[C@H](F)CN1Cc2cc(NC(=O)c3cnn4cccnc34)c(N3CCOCC3)cc2C1=O
- inhibition [1]: 20.5%
- inhibition [2]: -0%
- inhibition [3]: 15%
- inhibition [4]: 3%
- inhibition [5]: 33.3%
- inhibition [6]: -2%
- inhibition [7]: -0.98%
- inhibition [8]: 1%
- inhibition [9]: 19%
- inhibition [10]: 9%
- inhibition [11]: 12%
- inhibition [12]: 7%
- EC50 [13]: > 50 µM (not active)
- inhibition [14]: -3.5%
- inhibition [15]: -0.18%
- inhibition [16]: 6.2%
- inhibition [17]: 2.1%
- inhibition [18]: -6.7%
- inhibition [19]: 18.5%
- inhibition [20]: 0.5%
- inhibition [21]: 2.12%
- inhibition [22]: 1.5%
- inhibition [23]: 5.5%
- inhibition (Rattus norvegicus): -2.15%
- inhibition [24]: 3.5%
- inhibition [25]: 5.5%
- inhibition [26]: 7.5%
- inhibition [27]: 9.5%
- inhibition [28]: -0.5%
- inhibition [29]: 7%
- inhibition [30]: 0.5%
- inhibition [31]: 2.5%
- inhibition [32]: 42%
- inhibition [33]: 41.3%
- inhibition [34]: 5.5%
- inhibition [35]: -0.93%
- inhibition [36]: 1.5%
- inhibition [37]: 5.5%
- inhibition [38]: -2%
- inhibition [39]: 1%
- inhibition [40]: -3%
- inhibition [41]: 6.71%
- inhibition [42]: -6%
